Calls of active or inactive are those of the source.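 How the source made its calls: active means growth-inhibition EC50 no more than tenfold above the top tested dose; inconclusive means flat fit between 30% and 70% inhibition, or unreliable fit; inactive means EC50 more than tenfold above the top tested dose.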
What follows are compounds tested on E. coli NEB5alpha growth, BacTiter-Glo luminescence, 4 h (assay: antibacterial activity against E. coli NEB5alpha – luminescence, counter-screen for MEX-5/POS-1 RNA-binding inhibitor project, dose response (AID 1959);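 further: pUC19-transformed ampicillin-resistant cells grown in LB with ampicillin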).
`Cc1cc(/C=C2\C(=O)NC(=O)N(c3cccc(F)c3)C2=O)c(C)n1-c1ccc(C(=O)O)c(Cl)c1` was tested, and the EC50 was > 11 µM (inactive). In the case of `CC(=O)Nc1ccc(S(=O)(=O)NCc2nc(-c3cccc(C)c3)no2)cc1`, the EC50 is reported as > 11 µM (inactive). For `CCCn1c(O)c(CN2CCCCC2)c(C)c(C#N)c1=O`, the EC50 was > 11 µM (inactive). In the case of `Cc1ccccc1NC(=O)CN1C(=O)S/C(=C\c2ccc(-c3cc(C(=O)O)ccc3C)o2)C1=O`, the EC50 is reported as > 11 µM (inactive). For `CC(=O)c1ccc2c(c1)C1C=CCC1C(c1ccncc1)N2` (configuration not stated), the EC50 was > 11 µM (inactive). In the case of `Cc1cc(/C=C(/C#N)c2nc3ccccc3[nH]2)c(C)n1-c1ccccc1C(=O)O`, the EC50 is reported as > 11 µM (inactive). For `CN(C)c1ccc(/C=C/C(=O)c2cccc(Br)c2)cc1`, the EC50 was > 11 µM (inactive). In the case of `Cc1cc(C)nc(NN2C(=O)C=CC2=O)n1`, the EC50 is reported as > 11 µM (inactive). For `O=C(NNC(=O)c1cnccn1)c1ccc(Cl)cc1`, the EC50 was > 11 µM (inactive). For `CCN1CCN(Cc2c(C(=O)N/N=C(\C)c3ccc(Cl)cc3)nnn2-c2nonc2N)CC1`, the EC50 was > 11 µM (inactive). With `CCSC1=N/C(=C\c2ccccc2)C(=O)N1` the EC50 was > 11 µM (inactive). In the case of `N#Cc1ccccc1CN1C(=O)S/C(=C/c2cccn2-c2cccc(C(=O)O)c2)C1=O`, the EC50 is reported as > 11 µM (inactive). `CCCN1C(=O)/C(=C/c2ccc(C)o2)SC1=Nc1ccc(OC)cc1` was tested, and the EC50 was > 11 µM (inactive). In the case of `CC1=CC(C)(C)N2C(=O)C3(C(C#N)=C(N)OC4=C3C(=O)CCC4)c3c(C)c(C)cc1c32` (configuration not stated), the EC50 is reported as > 11 µM (inactive). `Cc1ccc2nc3sc(C(=O)N4CCCc5ccccc54)c(N)c3cc2c1` was tested, and the EC50 was > 11 µM (inactive). In the case of `Nc1c(C(=O)Nc2nc3ccccc3s2)sc2nc(-c3cccs3)ccc12`, the EC50 is reported as > 11 µM (inactive). In the case of `NC(=O)c1ccsc1N`, the EC50 is reported as > 11 µM (inactive). With `CC1(C)CC(=O)C2=C(C1)OC(N)=C(C#N)C2c1cccc(OC(=O)c2ccco2)c1` (configuration not stated) the EC50 was > 11 µM (inactive). With `O=C(/C=C/c1ccc(O)c(O)c1)OC(Cc1ccc(O)c(O)c1)C(=O)O` (configuration not stated) the EC50 was > 11 µM (inactive). In the case of `COc1ccc(-n2nc(C(=O)c3cccs3)cc(-c3nc4ccccc4[nH]3)c2=N)cc1`, the EC50 is reported as > 11 µM (inactive). `CCCOc1cccc(C2C(C(=O)c3ccco3)=C(O)C(=O)N2c2nnc(C)s2)c1` (configuration not stated) was tested, and the EC50 was > 11 µM (inactive). `CCOC(=O)c1c(/N=C/c2c(O)n(-c3cccc(C)c3)c(=O)[nH]c2=O)sc2c1CCCC2` was tested, and the EC50 was > 11 µM (inactive). `COc1ccccc1N1C(=O)S/C(=C\c2ccc(C)s2)C1=O` was tested, and the EC50 was > 11 µM (inactive). For `COc1ccc(C2C(C#N)=C(N)OC3=C2C(=O)CCC3)cc1OC` (configuration not stated), the EC50 was > 11 µM (inactive). `COc1ccc(C(=O)N=c2c(C#N)cc3c(=O)n4cccc(C)c4nc3n2Cc2ccco2)cc1` was tested, and the EC50 was > 11 µM (inactive). `O=C(Nc1ccccc1)NC1(C(=O)NCc2ccc3c(c2)OCO3)CCCCC1` was tested, and the EC50 was > 11 µM (inactive). In the case of `CC(/C=C1\N=C(SCc2ccccc2Cl)SC1=O)=C\c1ccccc1`, the EC50 is reported as > 11 µM (inactive). `COc1cc(/C=N/Nc2nc(=O)[nH]nc2C)ccc1O` was tested, and the EC50 was > 11 µM (inactive). With `Cn1cc(/C=N/n2cnc3scc(-c4ccc(Cl)cc4)c3c2=O)c2ccccc21` the EC50 was > 11 µM (inactive). With `Oc1[nH]c2ccccc2c1N=Nc1ccccc1` the EC50 was > 11 µM (inactive). `CN1C(=O)/C(=C\c2ccc(N(C)C)cc2)OC1=S` was tested, and the EC50 was > 11 µM (inactive). With `Oc1c(Br)cc(Br)c(/C=N/n2c(-c3ccccc3)n[nH]c2=S)c1Br` the EC50 was > 11 µM (inactive). For `Cc1nc2ccc(N3CCN(C)CC3)cc2nc1C`, the EC50 was > 11 µM (inactive). For `CCOC(=O)[C@@]1(C#N)C(c2ccc(Cl)c(Cl)c2)[C@H](C(N)=O)N2C=C(C(C)=O)C=C[C@H]21` (some centres not stated), the EC50 was > 11 µM (inactive). `Cc1cc(/C=C2/C(=O)NC(=O)N(c3ccccc3)C2=O)c(C)n1-c1ccc(F)cc1` was tested, and the EC50 was > 11 µM (inactive). `NS(=O)(=O)c1ccc(NC(=O)COC(=O)c2cn(-c3ccccc3)nc2-c2ccc(F)cc2)cc1` was tested, and the EC50 was > 11 µM (inactive). `COc1ccc(C(=O)/C=C/c2ccc(N3CCCCC3)c([N+](=O)[O-])c2)c(OC)c1` was tested, and the EC50 was > 11 µM (inactive). `CCN1C(=O)/C(=C/c2c(C)nn(C)c2C)SC1=S` was tested, and the EC50 was > 11 µM (inactive). In the case of `CN=c1scc(C)n1/N=C/c1ccc(O)c(O)c1O`, the EC50 is reported as > 11 µM (inactive). In the case of `CCc1ccccc1N1C(=O)/C(=C/c2ccc(N3CCN(C)CC3)o2)C(=O)NC1=S`, the EC50 is reported as > 11 µM (inactive). For `CCOc1ccc(-n2c(O)c(/C=N/c3ccnn3Cc3ccncc3)c3ccccc3c2=O)cc1`, the EC50 was > 11 µM (inactive). For `COC(=O)c1sccc1NC(=O)c1ccc(C)s1`, the EC50 was > 11 µM (inactive). For `O=C(O)c1ccccc1-n1c(-c2ccccc2)cc2c1CCCC2=O`, the EC50 was > 11 µM (inactive). `COc1ccc(C2c3cc(OC)c(OC)cc3CCN2S(C)(=O)=O)cc1OC` (configuration not stated) was tested, and the EC50 was > 11 µM (inactive). For `Cn1c(O)c(C=NCCCCCCCCCCC(=O)O)c(=O)n(C)c1=O`, the EC50 was > 11 µM (inactive). For `O=C1NC(=O)N(c2ccccc2F)C(=O)/C1=C/c1cn(CC(=O)N2CCOCC2)c2ccccc12`, the EC50 was > 11 µM (inactive). `O=c1[nH]nc(CNc2ccc(O)cc2)c2ccccc12` was tested, and the EC50 was > 11 µM (inactive). With `CSCC(C)N1CCC(n2nccc2NC(=O)CCCc2ccccc2)CC1` (configuration not stated) the EC50 was > 11 µM (inactive). For `CCOC(=O)C1=C(C)N=c2s/c(=C/c3ccc(OCC(=O)O)cc3)c(=O)n2C1c1ccc(OC)cc1OC` (configuration not stated), the EC50 was > 11 µM (inactive). In the case of `COc1ccc(C2C(C#N)=C(N)OC3=C2C(=O)CC(C)(C)C3)cc1` (configuration not stated), the EC50 is reported as > 11 µM (inactive). For `CN1CCc2cc3c(c4c2[C@H]1[C@H](O)c1ccccc1-4)OCO3`, the EC50 was > 11 µM (inactive). With `Nc1c(O)ccc2c1C(=O)c1ccccc1C2=O` the EC50 was > 11 µM (inactive). `COc1ccc(OC)c(S(=O)(=O)Nc2ccc(O)c(Sc3ncn[nH]3)c2)c1` was tested, and the EC50 was > 11 µM (inactive). In the case of `COC(=O)CCCC1=CC2=CC(=O)C(C)(OC(=O)c3ccc(Cl)nc3)C(=O)C2=CO1` (configuration not stated), the EC50 is reported as > 11 µM (inactive). With `Cc1c(Cl)cccc1NC(=S)N1CCN(C(=O)C2CCCO2)CC1` (configuration not stated) the EC50 was > 11 µM (inactive). `CSCC(C)N1CCC(N2CCC(C(=O)NCc3ccccn3)CC2)CC1` (configuration not stated) was tested, and the EC50 was > 11 µM (inactive). For `COc1ccc(C2C(C#N)=C(N)OC3=C2C(=O)CC(C)(C)C3)cc1Cn1cc([N+](=O)[O-])cn1` (configuration not stated), the EC50 was > 11 µM (inactive). `Cc1cccc(N=C2NC(=O)CS2)c1` was tested, and the EC50 was > 11 µM (inactive). `O=C1c2cccc3cccc(c23)C(=O)N1/N=C/c1c(O)n(-c2ccccc2)c(=O)[nH]c1=O` was tested, and the EC50 was > 11 µM (inactive). `COc1ccc(OC)c(-n2c(O)c(/C=C3\C=Nc4ccccc43)c(=O)[nH]c2=O)c1` was tested, and the EC50 was > 11 µM (inactive). In the case of `CCOC(=O)N1CCN(c2nc3ccccc3nc2C(C#N)S(=O)(=O)c2ccc(C)cc2)CC1` (configuration not stated), the EC50 is reported as > 11 µM (inactive). In the case of `CCC(=O)OC1(C)C(=O)C=C2C=C(c3ccc(C#N)cc3)OC=C2C1=O` (configuration not stated), the EC50 is reported as > 11 µM (inactive). For `CCOc1ccc(S(=O)(=O)Nc2cc(Sc3ncn[nH]3)c3oc(=O)sc3c2)cc1`, the EC50 was > 11 µM (inactive). For `CCOC(=O)c1ccc(-n2c(CCC(=O)O)ccc2-c2ccc(F)cc2)cc1`, the EC50 was > 11 µM (inactive). In the case of `CCOC(=O)c1nn(-c2ccc(C)cc2)c2nc(Nc3ccccc3)cc(=O)n12`, the EC50 is reported as > 11 µM (inactive). In the case of `Cc1cc(C)c[n+](-c2[nH]c(=O)sc2/C=N/NC([S-])=Nc2ccccc2)c1`, the EC50 is reported as > 11 µM (inactive). For `Cc1ccc(CN2C(=O)N/C(=C\c3cccn3-c3cccc(C(=O)O)c3)C2=O)cc1`, the EC50 was > 11 µM (inactive).

Reference: PubChem BioAssay AID1959 (Broad Institute, 2009)
